Values quoted from earlier work in patent publication US20240342250A1, “COMPOSITION AND METHODS OF TREATMENT USING […]-ENHANCED SUPPLEMENTATION” (Xygenyx Inc., priority 2023, published 2024).
Non-standard residues stand in square brackets, D forms with d. Residues, ends and D or L forms follow the SMILES beside them. Cit = NC(=O)NCCC[C@H](N)C(=O)O

Columns and labels:
[1] = tested on: memory recall and cognitive function; conditions: compared to placebo; 34 pairs of matched adolescent students
[2] = tested on: systemic inflammation, oxidative status, and liver cell metabolism associated with rheumatoid arthritis; conditions: arthritic subjects
[3] = tested on: skin; conditions: topical, concentrations 0.5-5%
[4] = tested on: skin
[5] = generally considered safe and well-tolerated at doses of up to
[6] = tested on: symptoms of depression; conditions: patients who did not respond to traditional antidepressant medications
[7] = in vivo
[8] = compared to alpha-tocopherol = 1.0
[9] = tested on: markers of inflammation in the blood; conditions: individuals with metabolic syndrome
[10] = even when dietary intake occurs in equal portions
[11] = tested on: wide dynamic range neurons in the ventroposterolateral nucleus of the thalamus; conditions: is believed
[12] = tested on: skin; conditions: topical formulations; within four weeks of treatment

Compound: C/C=C1\[C@H]2C=C(C)C[C@]1(N)c1ccc(=O)[nH]c1C2 [Huperzine A]
- memory recall and cognitive function [1]: significant improvements in memory recall and cognitive function

Compound: C=C1CC/C=C(\C)CC[C@@H]2[C@@H]1CC2(C)C [β-caryophyllene]
- protein carbonyl groups and myeloperoxidase activity in liver and plasma [2]: eliminated increases of protein carbonyl groups and myeloperoxidase activity
- swelling of joints and lymph nodes, circulating and articular leukocytes [2]: reduced swelling of joints and lymph nodes as well as the number of circulating and articular leukocytes

Compound: C=CCCCCCCCCC(=O)N[C@@H](Cc1ccccc1)C(=O)O [UP, Undecylenoyl phenylalanine]
- time to skin lightening effects [3]: ≥ 7 days

Compound: CC12CCC(CC1)C(C)(C)O2 [eucalyptol, Eucalyptol]
- increase of transdermal drug uptake, factor [4]: more than 10

Compound: CC(C)[C@@H]1CC[C@@H](C)C[C@H]1O [Menthol]
- increase of transdermal drug uptake, factor [4]: ≥ 10

Compound: CCNC(=O)CC[C@H](N)C(=O)O [Theanine]
- safe and well-tolerated dose [5]: up to 400 mg per day

Compound: Cc1c(C)c2c(c(C)c1O)CC[C@@](C)(CCC[C@H](C)CCC[C@H](C)CCCC(C)C)O2 [α-tocopherol]
- progression of age-related macular degeneration (400-500 IU in combination with 10-20 mg beta-carotene and 400-500 mg vitamin C): dramatically reduce the progression of age-related macular degeneration
- functional health of sperm (800-900 IU/day): improve functional health of sperm
- blood plasma concentration of F2-isoprostane (1600-3200 IU/day): significantly lower blood plasma concentration of F2-isoprostane
- reduction of risk of coronary disease (dietary supplementation, doses up to 400 IU/day): up to 34%
- reduction of risk of developing neurodegenerative diseases such as Alzheimer's Syndrome or dementia (dietary supplementation, doses up to 400 IU/day, controlled trials): ≤ 24%
- reduction in the development of age-related cataracts (in combination with 10-20 mg beta-carotene and 400-500 mg vitamin C): 23%

Compound: CN1c2c([nH]c(N)nc2=O)NCC1CNc1ccc(C(=O)N[C@@H](CCC(=O)O)C(=O)O)cc1 (stereo partly shown) [5-MTHF, 5-methyltetrahydrofolate]
- symptoms of depression [6]: improved symptoms of depression

Compound: HGH: hormone comprising a peptide chain that is synthesized in the pituitary gland
- biological half-life [7]: 10-20 minutes

Compound: Cc1cc(O)cc2c1O[C@](C)(CCC[C@H](C)CCC[C@H](C)CCCC(C)C)CC2 [δ-tocopherol]
- relative biological activity [8]: 0.03
- markers of inflammation in the blood [9]: reduced markers of inflammation in the blood

Compound: Cc1c(O)cc2c(c1C)O[C@](C)(CCC[C@H](C)CCC[C@H](C)CCCC(C)C)CC2 [γ-tocopherol]
- relative biological activity [8]: 0.1
- concentration in vivo relative to alpha-tocopherol [10]: roughly 10%

Compound: CCCCCc1cc(O)c2c(c1)OC(C)(C)C1CCC(C)=CC21 (stereo not shown) [THC, Δ-9-tetrahydrocannabinol]
- potency in mediating pain relative to morphine [11]: ten times more powerful than morphine

Compound: Cc1cc(O)c(C)c2c1O[C@](C)(CCC[C@H](C)CCC[C@H](C)CCCC(C)C)CC2 [β-tocopherol]
- relative biological activity [8]: 0.5

Compound: CC[C@H](C)[C@H](NC(=O)[C@H](CC(=O)O)NC(=O)[C@@H](N)CCCCN)C(=O)N[C@@H](CCCNC(N)=O)C(N)=O [Tripeptide-10 citrulline] (H-KDI[Cit]-NH2)
- improvement of suppleness [12]: ≤ 54%
